Ki data for five compounds are collected here from BindingDB's records for PubMed 11546835 (Mcgill University, 2001).

SMILES strings stand for the structures. “And” between values parts separate entries of the source, which are not always exact repeats. Equal entries are not always repeated. Residues, ends and D or L forms follow the SMILES beside them.

This experiment has as its target Nociceptin receptor (Mus musculus, UniProt P35377).

Nociceptin receptor, sequence (P35377 whole entry): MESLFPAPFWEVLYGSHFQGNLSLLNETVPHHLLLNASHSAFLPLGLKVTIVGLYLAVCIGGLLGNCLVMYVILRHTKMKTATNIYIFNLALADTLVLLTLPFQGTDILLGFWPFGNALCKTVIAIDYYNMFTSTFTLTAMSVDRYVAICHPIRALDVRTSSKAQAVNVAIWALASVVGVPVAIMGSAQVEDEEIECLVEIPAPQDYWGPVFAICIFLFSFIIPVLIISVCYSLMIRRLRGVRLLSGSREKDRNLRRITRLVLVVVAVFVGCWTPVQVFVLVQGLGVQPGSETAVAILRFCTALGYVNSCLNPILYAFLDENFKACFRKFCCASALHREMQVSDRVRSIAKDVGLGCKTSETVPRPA

`CC(C)C[C@H](NC(=O)[C@H](Cc1ccccc1)NC(=O)CNC(=O)CNC(=O)[C@@H](N)Cc1ccc(O)cc1)C(=O)N[C@@H](CCCNC(=N)N)C(=O)N[C@@H](CCCCN)C(=O)N[C@@H](Cc1ccc(O)cc1)C(=O)N1CCC[C@H]1C(=O)N[C@@H](CCCCN)C(=O)O` [CB0427223] (H-YGGFLRKYPK-OH) returned an inhibition constant (Ki) of 0.192 µM.

`CSCC[C@H](NC(=O)[C@H](Cc1ccccc1)NC(=O)CNC(=O)CNC(=O)[C@@H](N)Cc1ccc(O)cc1)C(=O)O` [2-[(S)-2-(2-{2-[(S)-2-Amino-3-(4-hydroxy-phenyl)-propionylamino]-acetylamino}-acetylamino)-1-oxo-3-phenyl-propylamino]-4-methylsulfanyl-butyric acid] came in with a Ki of 1 µM.

With `Oc1ccc2c3c1OC1c4[nH]c5c(c4CC4(O)CN(CCC314)C(C1CC1)C2)CC1(O)CN2CCC13c1c(ccc(O)c1OC53)CC2C1CC1` (stereo not given) [CAS_105618-26-6], the Ki was 0.898 µM and 7.5 µM.

Consider `CC(C)C[C@H](NC(=O)[C@H](Cc1ccccc1)NC(=O)CNC(=O)CNC(=O)[C@@H](N)Cc1ccc(O)cc1)C(=O)N[C@@H](CCCN=C(N)N)C(=O)N[C@@H](CCCN=C(N)N)C(=O)N[C@@H](CCC(N)=O)C(=O)N[C@@H](Cc1ccccc1)C(=O)N[C@@H](CCCCN)C(=O)N[C@H](C(=O)N[C@H](C(=O)N[C@H](C(=O)O)[C@@H](C)O)C(C)C)C(C)C` [Dynorphin B (1-13)], for which the Ki was 0.0339 µM and 0.247 µM.

For the compound `C[C@H](NC(=O)CNC(=O)[C@@H](NC(=O)[C@H](Cc1ccccc1)NC(=O)CNC(=O)CNC(=O)[C@@H](N)Cc1ccccc1)[C@@H](C)O)C(=O)O` [OFQ/N (1-7)] (H-FGGFTGA-OH), the Ki was 0.44 µM and 0.36 µM.
